Assay results: a flash point compilation (Sun et al. 2020)
Counter-ions that a name gives are not always drawn.

Going from `COS(=O)(=O)OC` [dimethyl sulfate] to `CCOS(=O)(=O)OCC` [diethyl sulfate], the flash point rises from 83.00 °C to 104.00 °C.

Compared with `CCCCOC(=O)CCC(=O)OCCCC` [dibutyl butanedioate], `CCCCC(=O)CCCC` [nonan-5-one] is lower in flash point: 135.00 °C for the first, 60.00 °C for the second.

Compared with `N#CC(O)c1ccccc1` (stereo not drawn) [2-hydroxy-2-phenylacetonitrile], `Brc1ccccc1` [bromobenzene] is lower in flash point: 82.00 °C for the first, 51.00 °C for the second.

First: C[Si](Cl)(Cl)Cl [trichloro(methyl)silane]
Second: CC[Si](Cl)(Cl)CC [dichloro(diethyl)silane]
The flash point of the first is lower: -9.00 °C for the first, 24.00 °C for the second.

Compared with `CCOC(=O)C#Cc1ccccc1` [ethyl 3-phenylprop-2-ynoate], `O=C(Cl)OCc1ccccc1` [benzyl carbonochloridate] is lower in flash point: 113.00 °C for the first, 108.00 °C for the second.

First: CC(C#N)CCC#N (stereo not drawn) [2-methylpentanedinitrile]
Second: CC(O)CCl (stereo not drawn) [1-chloropropan-2-ol]
The flash point of the first is higher: 126.00 °C for the first, 52.00 °C for the second.

First: c1ccc2c(c1)ccc1ccccc12 [phenanthrene]
Second: c1ccc2c(c1)-c1cccc3cccc-2c13 [fluoranthene]
The flash point of the first is lower: 171.00 °C for the first, 198.00 °C for the second.

Compared with `C=C1CCC2CC1C2(C)C` (stereo not drawn) [6,6-dimethyl-2-methylidenebicyclo[3.1.1]heptane], `CC1(C2CCC3(C)OC3C2)CO1` (stereo not drawn) [1-methyl-4-(2-methyloxiran-2-yl)-7-oxabicyclo[4.1.0]heptane] is higher in flash point: 31.00 °C for the first, 118.00 °C for the second.

Compared with `CC1CCCCC1O` (stereo not drawn) [2-methylcyclohexan-1-ol], `C=C(C)[C@H]1CC=C(C)CC1` [(4R)-1-methyl-4-prop-1-en-2-ylcyclohexene] is lower in flash point: 59.00 °C for the first, 48.00 °C for the second.

Going from `CN1CCCC1=O` [1-methylpyrrolidin-2-one] to `C1CCNC1` [pyrrolidine], the flash point falls from 96.00 °C to 3.00 °C.

Compared with `CCCCN(CCO)CCCC` [2-(dibutylamino)ethanol], `CCCCCCCOC(C)=O` [heptyl acetate] is lower in flash point: 99.00 °C for the first, 68.00 °C for the second.

Going from `COS(=O)(=O)C(F)(F)F` [methyl trifluoromethanesulfonate] to `COC=O` [methyl formate], the flash point falls from 38.00 °C to -32.00 °C.

Compared with `Cc1ccc(N)c(C)c1` [2,4-dimethylaniline], `Cc1ccc(N)c([N+](=O)[O-])c1` [4-methyl-2-nitroaniline] is higher in flash point: 96.00 °C for the first, 157.00 °C for the second.

Compared with `O.c1cc[c]([Sn]([c]2ccccc2)[c]2ccccc2)cc1` [triphenyltin;hydrate], `O=C(OOC(=O)c1ccccc1)c1ccccc1` [benzoyl benzenecarboperoxoate] is lower in flash point: 400.00 °C for the first, 80.00 °C for the second.

First: Nc1ccc2ccccc2c1 [naphthalen-2-amine]
Second: Nc1ccc(Nc2ccccc2)cc1 [4-N-phenylbenzene-1,4-diamine]
The flash point of the first is lower: 157.00 °C for the first, 193.00 °C for the second.

Going from `CCCCOCCOCCSC#N` [2-(2-butoxyethoxy)ethyl thiocyanate] to `CCOCCOCC` [1,2-diethoxyethane], the flash point falls from 52.00 °C to 35.00 °C.

Compared with `Cc1c(Cl)cccc1Cl` [1,3-dichloro-2-methylbenzene], `ClCc1ccccc1Cl` [1-chloro-2-(chloromethyl)benzene] is higher in flash point: 82.00 °C for the first, 91.00 °C for the second.

First: Br/C=C/c1ccccc1 [[(E)-2-bromoethenyl]benzene]
Second: Cl.Nc1ccccc1 [aniline;hydrochloride]
The flash point of the first is lower: 79.00 °C for the first, 193.00 °C for the second.

Compared with `COP(=S)(OC)Oc1ccc(SC)c(C)c1`, `Cc1cccc(OP(=O)(Oc2cccc(C)c2)Oc2cccc(C)c2)c1` [tris(3-methylphenyl) phosphate] is higher in flash point: 170.00 °C for the first, 210.00 °C for the second.

Going from `CC1=Nc2ccc3ccccc3c2C1(C)C` [1,1,2-trimethylbenzo[e]indole] to `Oc1ccc(Cl)cc1Cc1ccccc1` [2-benzyl-4-chlorophenol], the flash point rises from 182.00 °C to 188.00 °C.

Going from `Cc1ccc([N+](=O)[O-])cc1.N.Nc1cccc([N+](=O)[O-])c1.Nc1ccccc1[N+](=O)[O-]` [azane;1-methyl-4-nitrobenzene;2-nitroaniline;3-nitroaniline] to `O=[N+]([O-])c1ccccc1O` [2-nitrophenol], the flash point falls from 154.00 °C to 108.00 °C.

Going from `CC(C)(Cl)[N+](=O)[O-]` [2-chloro-2-nitropropane] to `Cc1cccc([N+](=O)[O-])c1C` [1,2-dimethyl-3-nitrobenzene], the flash point rises from 57.00 °C to 107.00 °C.

Going from `O=C=Nc1ccccc1` [isocyanatobenzene] to `O=C(O)Cc1ccccc1` [2-phenylacetic acid], the flash point rises from 56.00 °C to 132.00 °C.

First: C=CCBr [3-bromoprop-1-ene]
Second: C=CCN(CC=C)CC=C [N,N-bis(prop-2-enyl)prop-2-en-1-amine]
The flash point of the first is lower: -2.00 °C for the first, 39.00 °C for the second.

First: CCCCCCC(C)(C)C(=O)OCC1CO1 (stereo not drawn) [oxiran-2-ylmethyl 2,2-dimethyloctanoate]
Second: CCCCOCC(C)O (stereo not drawn) [1-butoxypropan-2-ol]
The flash point of the first is higher: 129.00 °C for the first, 63.00 °C for the second.

Compared with `CCN(CC)N=O` [N,N-diethylnitrous amide], `CCOC(=O)CC` [ethyl propanoate] is lower in flash point: 63.00 °C for the first, 12.00 °C for the second.

Compared with `CC(=O)Oc1ccccc1C(=O)O` [2-acetyloxybenzoic acid], `O=C(CCl)c1ccccc1` [2-chloro-1-phenylethanone] is lower in flash point: 250.00 °C for the first, 118.00 °C for the second.

Compared with `CCCCCCCCCCCCCCCCCC(=O)[O-].[Cl-].[Cl-].[Cl-].[Cl-].[Cr+3].[Cr+3].[OH-]` [chromium(3+);octadecanoate;tetrachloride;hydroxide], `CCCCCCCCCCCCCCCCCCCC` [icosane] is higher in flash point: 2.00 °C for the first, 100.00 °C for the second.

First: CCOCC(=O)O [2-ethoxyacetic acid]
Second: CCOC(=O)CC(C)O (stereo not drawn) [ethyl 3-hydroxybutanoate]
The flash point of the first is higher: 98.00 °C for the first, 64.00 °C for the second.

First: O=CC1CO1 (stereo not drawn) [oxirane-2-carbaldehyde]
Second: O=CC1CC=CCC1 (stereo not drawn) [cyclohex-3-ene-1-carbaldehyde]
The flash point of the first is lower: 31.00 °C for the first, 57.00 °C for the second.

Compared with `O=P(OC(CCl)CCl)(OC(CCl)CCl)OC(CCl)CCl` [tris(1,3-dichloropropan-2-yl) phosphate], `ClCC(Cl)CCl` [1,2,3-trichloropropane] is lower in flash point: 252.00 °C for the first, 82.00 °C for the second.

Compared with `CSCCC=O` [3-methylsulfanylpropanal], `CSC` [methylsulfanylmethane] is lower in flash point: 61.00 °C for the first, -38.00 °C for the second.

Going from `C=C(Cl)C#N` [2-chloroprop-2-enenitrile] to `FC(F)=C(F)Cl` [1-chloro-1,2,2-trifluoroethene], the flash point falls from 7.00 °C to -27.00 °C.

First: CCNCCO [2-(ethylamino)ethanol]
Second: OCCNCCO [2-(2-hydroxyethylamino)ethanol]
The flash point of the first is lower: 71.00 °C for the first, 137.00 °C for the second.

Going from `CC(=O)OCC(COC(C)=O)OC(C)=O` [2,3-diacetyloxypropyl acetate] to `CCOC(=O)CC(O)(CC(=O)OCC)C(=O)OCC` [triethyl 2-hydroxypropane-1,2,3-tricarboxylate], the flash point rises from 138.00 °C to 155.00 °C.

First: C=C(C)C(=O)OCCO [2-hydroxyethyl 2-methylprop-2-enoate]
Second: C=C(C)C(=O)OCC(Br)CBr (stereo not drawn) [2,3-dibromopropyl 2-methylprop-2-enoate]
The flash point of the first is higher: 97.00 °C for the first, 59.00 °C for the second.

First: Cc1ccc(S(=O)(=O)[N-]Cl)cc1.[Na+] [sodium;chloro-(4-methylphenyl)sulfonylazanide]
Second: CCOP(=S)(OCC)SCn1c(=O)oc2cc(Cl)ccc21
The flash point of the first is higher: 192.00 °C for the first, 100.00 °C for the second.

Going from `OCCS` [2-sulfanylethanol] to `OCC(O)CO` [propane-1,2,3-triol], the flash point rises from 74.00 °C to 160.00 °C.

First: OCCCCCCO [hexane-1,6-diol]
Second: ClCCCCCCCl [1,6-dichlorohexane]
The flash point of the first is higher: 102.00 °C for the first, 74.00 °C for the second.

Going from `O=C1OC(=O)C2CC=CCC12` (stereo not drawn) [3a,4,7,7a-tetrahydro-2-benzofuran-1,3-dione] to `CCOC(=O)C1CC(=O)C(=C(O)C2CC2)C(=O)C1` (stereo not drawn), the flash point falls from 157.00 °C to 133.00 °C.

Going from `CC(C)C(C)C` [2,3-dimethylbutane] to `CC(O)C(C)O` (stereo not drawn) [butane-2,3-diol], the flash point rises from -29.00 °C to 85.00 °C.

First: CC(=O)OC(Cl)CCl (stereo not drawn) [1,2-dichloroethyl acetate]
Second: C=C(C)C(=O)OC(C)CO (stereo not drawn) [1-hydroxypropan-2-yl 2-methylprop-2-enoate]
The flash point of the first is higher: 153.00 °C for the first, 121.00 °C for the second.

First: C=COCCOC [1-ethenoxy-2-methoxyethane]
Second: COCOC [dimethoxymethane]
The flash point of the first is higher: 18.00 °C for the first, -18.00 °C for the second.

Going from `CCCCCCCCCCCCCCCCCCCCCCCCC` [pentacosane] to `CC(C)CCCCCOC(=O)CCCCC(=O)OCCCCCC(C)C` [bis(6-methylheptyl) hexanedioate], the flash point rises from 120.00 °C to 210.00 °C.

Going from `OCC1CCC(CO)CC1.OCC1CCC(CO)CC1` (stereo not drawn) [[4-(hydroxymethyl)cyclohexyl]methanol] to `C1CCOCC1` [oxane], the flash point falls from 166.00 °C to -20.00 °C.

Going from `CC(C)CON=O` [2-methylpropyl nitrite] to `CCOC(C)OCC` [1,1-diethoxyethane], the flash point rises from -23.00 °C to -21.00 °C.

Compared with `CC(C)CC(C)C(C)C.CCCC(C)CC(C)C.CCCCC(C)C(C)C` (stereo not drawn), `CCCC(=O)CCC` [heptan-4-one] is higher in flash point: 24.00 °C for the first, 49.00 °C for the second.

Going from `CC=CC=CC(=O)O` [hexa-2,4-dienoic acid] to `CCO[Si](OCC)(OCC)OCC` [tetraethyl silicate], the flash point falls from 127.00 °C to 37.00 °C.

Going from `CCOP(=S)(OCC)SCSP(=S)(OCC)OCC` to `ClC1=C(Cl)C2(Cl)C3C(Cl)C(Cl)CC3C1(Cl)C2(Cl)Cl` (stereo not drawn) [1,3,4,7,8,9,10,10-octachlorotricyclo[5.2.1.02,6]dec-8-ene], the flash point falls from 176.00 °C to 107.00 °C.
